Source: ChEMBL document CHEMBL1147729, “(+)-(2R,5S)-4-[4-cyano-3-(trifluoromethyl)phenyl]-2,5-dimethyl-N-[6-(trifluoromethyl)pyridin-3-yl]piperazine-1-carboxamide (YM580) as an orally potent and peripherally selective nonsteroidal androgen receptor antagonist” (J Med Chem, 2006)
The source made the active and inactive calls. The calls are words filed in the database; no cut-off is given here.

Tests used:
Androgen receptor = biological target: T1, Androgen receptor (Homo sapiens, UniProt P10275)
T1 sequence (P10275 whole entry): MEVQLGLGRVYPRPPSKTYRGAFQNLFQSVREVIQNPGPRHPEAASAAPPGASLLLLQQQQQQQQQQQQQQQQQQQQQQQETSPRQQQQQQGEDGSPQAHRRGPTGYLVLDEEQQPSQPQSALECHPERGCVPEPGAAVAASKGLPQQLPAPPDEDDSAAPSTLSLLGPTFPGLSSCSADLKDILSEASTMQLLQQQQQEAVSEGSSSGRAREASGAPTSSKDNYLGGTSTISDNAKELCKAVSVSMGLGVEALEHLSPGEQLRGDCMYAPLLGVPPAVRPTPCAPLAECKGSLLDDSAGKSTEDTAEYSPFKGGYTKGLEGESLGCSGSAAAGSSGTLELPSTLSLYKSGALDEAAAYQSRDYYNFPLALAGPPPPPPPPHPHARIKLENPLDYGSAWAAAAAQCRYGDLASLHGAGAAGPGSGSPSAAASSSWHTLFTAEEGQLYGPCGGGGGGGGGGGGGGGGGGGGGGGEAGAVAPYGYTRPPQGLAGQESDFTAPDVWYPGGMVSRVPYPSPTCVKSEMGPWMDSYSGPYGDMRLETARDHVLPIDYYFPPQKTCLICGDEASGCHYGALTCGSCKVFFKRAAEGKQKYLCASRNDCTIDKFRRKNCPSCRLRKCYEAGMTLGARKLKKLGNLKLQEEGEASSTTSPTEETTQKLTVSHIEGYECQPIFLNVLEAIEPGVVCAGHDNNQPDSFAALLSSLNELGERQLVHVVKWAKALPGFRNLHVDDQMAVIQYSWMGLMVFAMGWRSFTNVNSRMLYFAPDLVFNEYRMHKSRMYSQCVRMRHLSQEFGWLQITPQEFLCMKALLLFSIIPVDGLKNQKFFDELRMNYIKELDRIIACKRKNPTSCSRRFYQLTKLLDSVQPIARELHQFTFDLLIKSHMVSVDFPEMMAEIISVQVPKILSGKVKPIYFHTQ
Description: Inhibition of AR mediated transcriptional activation using reporter assay

Rattus norvegicus [1] = experiment: Effect on ventral prostate weight with reference to control in Wistar rat at 10 mg/kg/day, po; conditions: Prostate gland
Rattus norvegicus [2] = experiment: Effect on ventral prostate weight with reference to control in Wistar rat at 10 mg/kg/day, po; format: functional, Prostate gland; conditions: for inhibition in vivo at 10 mg/kg/day: Rattus norvegicus, Wistar; for inhibition in vivo at 10 mg/kg/day / inhibition: Prostate gland
Progesterone receptor = biological target: T2, Progesterone receptor (Rattus norvegicus, UniProt Q63449); experiment: Inhibition of rat PR
T2 sequence (Q63449 whole entry): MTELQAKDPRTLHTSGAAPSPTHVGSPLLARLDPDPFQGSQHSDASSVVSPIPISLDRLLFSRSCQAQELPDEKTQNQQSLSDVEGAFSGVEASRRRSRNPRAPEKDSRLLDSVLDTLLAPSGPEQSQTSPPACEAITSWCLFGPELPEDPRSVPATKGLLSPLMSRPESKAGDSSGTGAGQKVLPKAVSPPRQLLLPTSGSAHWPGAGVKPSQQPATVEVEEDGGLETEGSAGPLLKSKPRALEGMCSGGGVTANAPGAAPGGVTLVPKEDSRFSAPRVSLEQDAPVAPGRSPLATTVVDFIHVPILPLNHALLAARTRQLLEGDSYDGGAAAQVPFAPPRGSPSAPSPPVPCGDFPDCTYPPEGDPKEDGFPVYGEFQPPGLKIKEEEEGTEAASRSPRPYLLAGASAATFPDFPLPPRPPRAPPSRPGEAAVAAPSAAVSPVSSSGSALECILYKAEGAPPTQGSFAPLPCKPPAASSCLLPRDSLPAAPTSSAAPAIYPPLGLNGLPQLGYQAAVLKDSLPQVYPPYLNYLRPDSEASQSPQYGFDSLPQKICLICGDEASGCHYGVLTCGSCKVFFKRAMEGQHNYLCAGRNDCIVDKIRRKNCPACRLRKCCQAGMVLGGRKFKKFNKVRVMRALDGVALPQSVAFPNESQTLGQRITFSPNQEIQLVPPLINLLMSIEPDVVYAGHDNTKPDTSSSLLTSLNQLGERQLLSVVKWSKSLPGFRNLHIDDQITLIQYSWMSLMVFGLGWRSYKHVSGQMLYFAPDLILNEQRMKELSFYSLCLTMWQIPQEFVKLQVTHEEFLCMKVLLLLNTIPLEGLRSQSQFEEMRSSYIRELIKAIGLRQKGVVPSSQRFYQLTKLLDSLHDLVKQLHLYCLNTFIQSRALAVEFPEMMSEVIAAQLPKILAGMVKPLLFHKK

Glucocorticoid receptor = biological target: T3, Glucocorticoid receptor (Homo sapiens, UniProt P04150); experiment: Inhibition of human GR
T3 sequence (P04150 whole entry): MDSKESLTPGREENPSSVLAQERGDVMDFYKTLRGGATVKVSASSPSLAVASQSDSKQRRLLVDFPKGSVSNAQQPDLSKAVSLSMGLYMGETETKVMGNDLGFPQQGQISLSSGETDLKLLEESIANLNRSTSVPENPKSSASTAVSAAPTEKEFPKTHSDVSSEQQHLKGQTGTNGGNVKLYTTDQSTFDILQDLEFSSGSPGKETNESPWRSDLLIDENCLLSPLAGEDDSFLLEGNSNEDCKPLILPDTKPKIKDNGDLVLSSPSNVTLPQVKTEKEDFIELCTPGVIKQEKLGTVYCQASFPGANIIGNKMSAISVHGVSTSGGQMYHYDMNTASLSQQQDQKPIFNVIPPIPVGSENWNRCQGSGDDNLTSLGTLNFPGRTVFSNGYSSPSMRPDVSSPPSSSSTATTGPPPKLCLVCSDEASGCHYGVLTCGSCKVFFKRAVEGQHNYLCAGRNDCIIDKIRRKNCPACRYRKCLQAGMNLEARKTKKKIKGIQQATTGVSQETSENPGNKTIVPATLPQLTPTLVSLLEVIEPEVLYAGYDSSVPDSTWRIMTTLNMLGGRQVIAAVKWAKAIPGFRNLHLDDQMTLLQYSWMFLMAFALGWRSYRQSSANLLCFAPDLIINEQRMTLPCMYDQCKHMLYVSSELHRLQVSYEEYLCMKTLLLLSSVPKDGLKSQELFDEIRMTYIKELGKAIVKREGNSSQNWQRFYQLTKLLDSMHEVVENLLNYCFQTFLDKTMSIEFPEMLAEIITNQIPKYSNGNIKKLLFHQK

[3] = Cmax in rat plasma at 3 mg/kg, po; format: ADME, organism-based; parameters: dose 3 mg/kg, route oral
[4] = AUC (0-72)hrs in rat plasma at 3 mg/kg, po; format: ADME, organism-based; parameters: time < 72 hr, dose 3 mg/kg, route oral
[5] = Half life in rat plasma at 3 mg/kg, po; format: ADME, organism-based; parameters: dose 3 mg/kg, route oral
[6] = Oral clearance in rat at 3 mg/kg, po; format: ADME, organism-based; parameters: dose 3 mg/kg, route oral; conditions: in vivo
[7] = Cmax in rat ventral prostate at 3 mg/kg, po; format: ADME, organism-based, Prostate gland; parameters: dose 3 mg/kg, route oral
[8] = AUC (0-72)hrs in rat ventral prostate at 3 mg/kg, po; format: ADME, organism-based, Prostate gland; parameters: time < 72 hr, dose 3 mg/kg, route oral
[9] = Half life in rat ventral prostate at 3 mg/kg, po; format: ADME, organism-based, Prostate gland; parameters: dose 3 mg/kg, route oral
[10] = Oral clearance in rat ventral prostate at 3 mg/kg, po; format: ADME, organism-based, Prostate gland; parameters: dose 3 mg/kg, route oral
[11] = Cmax in rat hypothalamus at 3 mg/kg, po; format: ADME, organism-based; parameters: dose 3 mg/kg, route oral
[12] = AUC (0-72)hrs in rat hypothalamus at 3 mg/kg, po; format: ADME, organism-based; parameters: time < 72 hr, dose 3 mg/kg, route oral
[13] = Half life in rat hypothalamus at 3 mg/kg, po; format: ADME, organism-based; parameters: dose 3 mg/kg, route oral
[14] = Oral clearance in rat hypothalamus at 3 mg/kg, po; format: ADME, organism-based; parameters: dose 3 mg/kg, route oral
Rattus norvegicus [15] = experiment: Effect on ventral prostate weight with reference to control in Wistar rat at 100 mg/kg/day; format: ADME, organism-based, Prostate gland; conditions: in vivo

| Structure (SMILES) | IC50 (Androgen receptor) | inhibition in vivo at 10 mg/kg/day (Rattus norvegicus [2]) | also measured |
| --- | --- | --- | --- |
| C[C@@H]1CN(c2ccc(C#N)c(C(F)(F)F)c2)[C@@H](C)CN1C(=O)Nc1ccc(F)cc1F | 200 nM | – | inhibition (Rattus norvegicus [1]): inactive |
| C[C@@H]1CN(C(=O)Nc2ccc(C(F)(F)F)nc2)[C@@H](C)CN1c1ccc(C#N)c(C(F)(F)F)c1 | – | – | inhibition (Rattus norvegicus [1]): inactive |
| Cc1ncccc1NC(=O)N1C[C@H](C)N(c2ccc(C#N)c(C(F)(F)F)c2)C[C@H]1C (racemic) | 680 nM | – | – |
| C[C@@H]1CN(c2ccc(C#N)c(C(F)(F)F)c2)[C@@H](C)CN1C(=O)Nc1ccncc1 (racemic) | – | 39% | – |
| C[C@@H]1CN(c2ccc(C#N)c(C(F)(F)F)c2)[C@@H](C)CN1C(=O)Nc1ccc(C#N)nc1 (racemic) | 200 nM | 53% | – |
| CSc1ccc(NC(=O)N2C[C@H](C)N(c3ccc(C#N)c(C(F)(F)F)c3)C[C@H]2C)cn1 (racemic) | 220 nM | 36% | – |
| COc1ncccc1NC(=O)N1C[C@H](C)N(c2ccc(C#N)c(C(F)(F)F)c2)C[C@H]1C (racemic) | 190 nM | – | inhibition (Rattus norvegicus [1]): inactive |
| C[C@@H]1CN(c2ccc(C#N)c(C(F)(F)F)c2)[C@@H](C)CN1C(=O)Nc1ccc[n+]([O-])c1 (racemic) | > 10000 nM | – | – |
| C[C@@H]1CN(c2ccc(C#N)c(C(F)(F)F)c2)[C@@H](C)CN1C(=O)Nc1ccccn1 (racemic) | 7800 nM | – | – |
| Cc1ccc(NC(=O)N2C[C@H](C)N(c3ccc(C#N)c(C(F)(F)F)c3)C[C@H]2C)cn1 (racemic) | 130 nM | 58% | – |
| COC(=O)c1ccc(NC(=O)N2C[C@H](C)N(c3ccc(C#N)c(C(F)(F)F)c3)C[C@H]2C)cn1 (racemic) | 470 nM | – | inhibition (Rattus norvegicus [2]): inactive |
| Cc1ccncc1NC(=O)N1C[C@H](C)N(c2ccc(C#N)c(C(F)(F)F)c2)C[C@H]1C (racemic) | 330 nM | 11% | – |
| CC1CN(c2ccc(C#N)c(C(F)(F)F)c2)C(C)CN1C(=O)Nc1ccc(C(F)(F)F)nc1 (racemic) | – | 64% | – |
| C[C@@H]1CN(c2ccc(C#N)c(C(F)(F)F)c2)[C@@H](C)CN1C(=O)Nc1ccc(Cl)nc1 (racemic) | 730 nM | 52% | – |
| C[C@@H]1CN(c2ccc(C#N)c(C(F)(F)F)c2)[C@@H](C)CN1C(=O)Nc1ccncn1 (racemic) | 4600 nM | – | – |
| C[C@@H]1CN(c2ccc(C#N)c(C(F)(F)F)c2)[C@@H](C)CN1C(=O)Nc1cncnc1 (racemic) | 1000 nM | – | – |
| C[C@@H]1CN(c2ccc(C#N)c(C(F)(F)F)c2)[C@@H](C)CN1C(=O)Nc1ncccn1 (racemic) | > 10000 nM | – | – |
| C[C@@H]1CN(c2ccc(C#N)c(C(F)(F)F)c2)[C@@H](C)CN1C(=O)Nc1ccc(N)nc1 (racemic) | 370 nM | 39% | – |
| COc1ccc(NC(=O)N2C[C@H](C)N(c3ccc(C#N)c(C(F)(F)F)c3)C[C@H]2C)cn1 (racemic) | 170 nM | 52% | – |
| CC(=O)c1ccc(NC(=O)N2C[C@H](C)N(c3ccc(C#N)c(C(F)(F)F)c3)C[C@H]2C)cn1 (racemic) | 500 nM | 43% | – |
| COc1cncc(NC(=O)N2C[C@H](C)N(c3ccc(C#N)c(C(F)(F)F)c3)C[C@H]2C)c1 (racemic) | 440 nM | 18% | – |
| Cc1cncc(NC(=O)N2C[C@H](C)N(c3ccc(C#N)c(C(F)(F)F)c3)C[C@H]2C)c1 (racemic) | 250 nM | 11% | – |
| C[C@@H]1CN(c2ccc(C#N)c(C(F)(F)F)c2)[C@@H](C)CN1C(=O)Nc1ccc(O)nc1 (racemic) | > 10000 nM | – | – |
| C[C@@H]1CN(c2ccc(C#N)c(C(F)(F)F)c2)[C@@H](C)CN1C(=O)Nc1cccnc1 (racemic) | 120 nM | 42% | – |
| COc1ccncc1NC(=O)N1C[C@H](C)N(c2ccc(C#N)c(C(F)(F)F)c2)C[C@H]1C (racemic) | – | – | inhibition (Rattus norvegicus [2]): inactive |
| CC(O)(CS(=O)(=O)c1ccc(F)cc1)C(=O)Nc1ccc(C#N)c(C(F)(F)F)c1 (stereo not given) [BICALUTAMIDE] | – | – | Inhibition (Rattus norvegicus [2]): 45%; Ki (Progesterone receptor): 7200 nM; Ki (Glucocorticoid receptor): > 100000 nM; Cmax [3]: 1410 ng/mL; AUC at 72 h [4]: 46900 ng·h/mL; half-life [5]: 22.3 h; CL/F [6]: 0.945 mL/min/kg; Cmax [7]: 1990 ng/mL; AUC at 72 h [8]: 52500 ng·h/mL; half-life [9]: 23.4 h; CL/F [10]: 0.84 mL/min/kg; Cmax [11]: 321 ng/mL; AUC at 72 h [12]: 10600 ng·h/mL; half-life [13]: 27.8 h; CL/F [14]: 3.75 mL/min/kg; Activity (Rattus norvegicus [15]): 55% |
